Assay results reported in US20110003321A1, “Monitoring of Intercellular Mitochondorial Polarization” (Kyushu University National University Corporation, priority 2005, published 2011).

Legend:
Format in all cases: cell-based
[1] = test system: Human liver cancer cells HepG-2; assay: Evaluation of lipid metabolism activity using SPR; conditions: 25 μM and 50 μM fenofibrate; especially about 20 minutes after the reagent was added; FIG. 2
Description: Measurement of SPR signals and fluorescent microscopic observation were carried out using a device having a fluorescent microscope located above living cells, which cells are a target of the measurement, and an SPR sensor located under the living cells. […] An optical system of Kretschmann configuration was used as an SPR sensor. BK7 (with a refractive index of 1.51) was used as a prism. A semiconductor laser (with a wavelength of 670 nm, an output of 3 mW, and a beam diameter of 1 mm) was used as a light source. A silicon photodiode detector was used as a detector. The measurement was carried out in the atmosphere (with 20% O2 and 0.035% CO2), unless otherwise stated.
(§1) Human liver cancer cells HepG-2 were used as test cells. A liquid medium EMEM containing 100 μM nonessential amino acid, 50 units/mL penicillin, 50 μg/mL streptomycin, and 10% (v/v) FBS was prepared, at 37° C. with a CO2 concentration of 5%, to be used as a complete medium, and the cells were pre-cultured in the complete medium and then used in the testing. Fenofibrate (2-[4-(4-Chlorobenzoyl)phenoxy]-2-methylpropanoic acid isopropyl ester) was used as a lipid metabolism promoting agent. Lipid metabolism activity was evaluated at the time when 25 μM fenofibrate was added and at the time when 50 μM fenofibrate was added. […]

[2] = test system: Human liver cancer cells HepG-2; assay: Monitoring mitochondrial polarized state using fluorescent reagent JC-1 (HepG-2); conditions: fenofibrate medium; especially about 20 minutes after the reagent was added; FIG. 3
Description: The fluorescent microscopic observation was carried out with the use of Axioplan 2 (Carl Zeiss) as a microscope, a 75-W xenon lamp as a light source, and NTE/CCD Detector MicroMAX-512BFT (Princeton Instruments) as a detector. Images were obtained and analyzed with the use of fluorescence analysis software, MetaFluor Imaging System Ver. 4.65 (Universal Imaging).
as §1
Following pre-culture, the test cells were removed from the petri dish, and the concentration of the test cells in the complete medium was adjusted to 2×10^6 cell/mL. […] To detect fluorescence, a set of filters that transmitted 515-565 nm and a set of filters that transmitted 575-640 nm were used. […]

[3] = test system: Human pancreas cancer cells MIA PaCa-2; assay: Measurement of SPR angle, agents alone or in combination; conditions: 25 μM each agent; 50 minutes after the administration; FIG. 13
Description: SPR angles were measured with the above-described SPR sensor (tilting sensor) at the temperature of 37.0° C. Likewise in the measurement of the survival rate, a cell suspension of 2×10^6 cell/mL was prepared, and 100 μL of the cell suspension was dropped onto a gold plate for SPR measurement and cultured for 20 hours at 37° C. with the CO2 concentration of 5%. After 20 hours, the plate was placed on the prism of the SPR sensor, and on the plate was filled 5 mL EMEM. Then, measurement was started. Ten minutes after the measurement was started, either a replacement with new 5 mL EMEM (DMSO used as the solvent of the phenol component was contained at a final concentration of 0.1% (v/v)) containing 25 μM quercetin, 25 μM trans-resveratrol, or both 25 μM quercetin and 25 μM trans-resveratrol, or a replacement with 5 mL EMEM containing only 0.1% (v/v) DMSO as a control was carried out, and then the measurement of the changes in SPR angle was continued for another 50 minutes.

[4] = test system: Human pancreas cancer cells MIA PaCa-2; assay: Survival rate by counting the number of cells (trypan blue, standard method), combined use of agents; conditions: 25 μM each agent; 48 hours after medium replacement; FIG. 12
Description: The effect of combined use of plural agents was evaluated by a method including co-culturing a test agent with the cells, and counting the number of reduced cells by apoptosis. Human pancreas cancer cells MIA PaCa-2 were used as the test cells. A cell suspension of 5×10^4 cells/mL was prepared with the use of EMEM (Eagles' minimum essential medium) containing 10% (v/v) FBS, 50 units/mL penicillin, 50 μg/mL streptomycin, and 100 μM nonessential amino acid, and 5 mL of the cell suspension was poured into each 6-cm petri dish and pre-cultured at 37° C. with the CO2 concentration of 5%. After 24 hours, either a replacement with new 5 mL EMEM (DMSO used as the solvent of the phenol component was contained at the final concentration of 0.1% (v/v)) containing 25 μM quercetin, 25 μM trans-resveratrol, or both 25 μM quercetin and 25 μM trans-resveratrol in addition to the medium, or a replacement with 5 mL EMEM containing only 0.1% (v/v) DMSO as a control was carried out, and then culturing was carried out. Forty eight hours after the medium was replaced, trypan blue staining was carried out, and then the number of cells was counted with a hemocytometer. Comparison was carried out for the respective conditions, with 100 representing the number of cells in the control.

SMILES	changes in SPR signals resulting from mitochondrial polarization due to activation of lipid metabolism [1]	fluorescence intensity (JC-1) resulting from mitochondrial polarization due to activation of lipid metabolism [2]	change in SPR angle [3]	survival rate (number of cells, control = 100) [4] [%]
CC(C)OC(=O)C(C)(C)Oc1ccc(C(=O)c2ccc(Cl)cc2)cc1 [fenofibrate, 2-[4-(4-Chlorobenzoyl)phenoxy]-2-methylpropanoic acid isopropyl ester]	changes (−) were observed in the SPR signals	increase in fluorescence intensity		
Oc1ccc(/C=C/c2cc(O)cc(O)c2)cc1 [trans-resveratrol]			approximately 0.05 degrees	56.2
O=c1c(O)c(-c2ccc(O)c(O)c2)oc2cc(O)cc(O)c12 [quercetin, Quercetin]			approximately 0.05 degrees	76.1
